In the supplement of paper PMC10307832:

Experiments:
Assay in all cases: relative viability (nuclei count vs DMSO), 5 days (fraction); higher = more cells survive
Ispinesib + Vorinostat = compound: Cc1ccc(C(=O)N(CCCN)[C@@H](c2nc3cc(Cl)ccc3c(=O)n2Cc2ccccc2)C(C)C)cc1 [Ispinesib] + O=C(CCCCCCC(=O)Nc1ccccc1)NO [Vorinostat] (partner 1 µM)
Method in brief: (§1)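 Lung cancer cell lines in 1536-well plates got either a single drug or a fixed anchor-drug dose together with five library-drug doses (not always all listed) in √10 steps, by pin tool, on the day after seeding. Nuclei were counted after 5 days, and relative viability is the treated-to-vehicle ratio of nuclei counts. Values are medians of duplicate plates.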

Ispinesib + Pemetrexed = compound: Cc1ccc(C(=O)N(CCCN)[C@@H](c2nc3cc(Cl)ccc3c(=O)n2Cc2ccccc2)C(C)C)cc1 [Ispinesib] + Nc1nc2[nH]cc(CCc3ccc(C(=O)N[C@@H](CCC(=O)O)C(=O)O)cc3)c2c(=O)[nH]1 [Pemetrexed] (partner 0.2 µM)
Method in brief: as §1

Linsitinib + Alpelisib = compound: C[C@]1(O)C[C@@H](c2nc(-c3ccc4ccc(-c5ccccc5)nc4c3)c3c(N)nccn32)C1 [Linsitinib] + Cc1nc(NC(=O)N2CCC[C@H]2C(N)=O)sc1-c1ccnc(C(C)(C)C(F)(F)F)c1 [Alpelisib] (partner 2 µM)
Method in brief: as §1

Linsitinib + Palbociclib = compound: C[C@]1(O)C[C@@H](c2nc(-c3ccc4ccc(-c5ccccc5)nc4c3)c3c(N)nccn32)C1 [Linsitinib] + CC(=O)c1c(C)c2cnc(Nc3ccc(N4CCNCC4)cn3)nc2n(C2CCCC2)c1=O [Palbociclib] (partner 0.5 µM)
Method in brief: as §1

Cell Line	relative viability (Ispinesib + Vorinostat; first compound 0.001 µM)	relative viability (Ispinesib + Vorinostat; first compound 0.003162 µM)	relative viability (Ispinesib + Vorinostat; first compound 0.01 µM)	relative viability (Ispinesib + Vorinostat; first compound 0.03162 µM)	relative viability (Ispinesib + Vorinostat; first compound 0.1 µM)	relative viability (Ispinesib + Pemetrexed; first compound 0.001 µM)	relative viability (Ispinesib + Pemetrexed; first compound 0.01 µM)	relative viability (Ispinesib + Pemetrexed; first compound 0.03162 µM)	relative viability (Ispinesib + Pemetrexed; first compound 0.1 µM)	relative viability (Linsitinib + Alpelisib; first compound 0.01 µM)	relative viability (Linsitinib + Alpelisib; first compound 0.03162 µM)	relative viability (Linsitinib + Alpelisib; first compound 0.1 µM)	relative viability (Linsitinib + Alpelisib; first compound 0.3162 µM)	relative viability (Linsitinib + Alpelisib; first compound 1 µM)	relative viability (Linsitinib + Palbociclib; first compound 0.03162 µM)	relative viability (Linsitinib + Palbociclib; first compound 0.1 µM)	relative viability (Linsitinib + Palbociclib; first compound 0.3162 µM)	relative viability (Linsitinib + Palbociclib; first compound 1 µM)	relative viability (Ispinesib + Pemetrexed; first compound 0.003162 µM)	relative viability (Linsitinib + Palbociclib; first compound 0.01 µM)
EKVX	0.741	0.78	0.693	0.623	0.561	0.41	0.416	0.337	0.325	0.842	0.848	0.856	0.901	0.756	0.408	0.39	0.288	0.316		
EPLC-272H	0.351	0.635	0.322	0.128	0.341	0.31	0.193	0.265	0.227	0.909	0.942	0.87		0.925	0.351	0.327		0.335	0.327	0.337
LK-2	0.247	0.348	0.343	0.195	0.24	0.231	0.294	0.269	0.124	1.04	1.12	1.33	0.804	1.11	0.58	0.615	0.371	0.554	0.29	0.968
CAL-12T	0.839	0.914	0.583	0.585	0.24	1.31	1.41	1.12	0.235	1.18	1.18	1.24	0.99	1.07	0.388	0.412	0.321	0.424	1.24	0.429
NCI-H322M	0.96	0.95	0.995	0.659	0.505	0.665	0.585	0.525	0.425	0.711	0.774	0.921	0.703	0.673	0.521	0.492	0.478	0.463	0.616	0.475
SW 1573	0.6	0.678	0.646	0.197	0.148	0.799	0.78	0.279	0.152	0.677	0.831	0.761	0.655	0.654	0.358	0.333	0.259	0.33	0.791	0.428
NCI-H2405	1.07	1.19	1.23	0.622	0.519	1.1	0.9	0.934	0.423	0.86	0.625	1.04	0.632	0.698	0.537	0.521	0.47	0.473	1.06	0.503
LCLC-103H	0.827	0.86	0.845	0.515	0.352	0.475	0.446	0.449	0.352	0.896	0.943	0.975	1.09	0.942	0.414	0.427	0.367	0.486	0.474	0.435
HCC-44	1.04	1.05	1.15	1.23	1.08	0.682	0.657	0.496	0.391	0.751	0.677	0.691	0.499	0.606	0.928	0.879	0.785	0.825	0.663	0.962
RERF-LC-KJ	0.585	0.679	0.553	0.39	0.397	0.43	0.443	0.309	0.202	0.838	0.9	0.832	0.878	0.757	0.795	1.05	0.464	1.1	0.516	0.909
NCI-H1975	0.738	0.766	0.798	0.586	0.279	0.328	0.322	0.277	0.155	0.608	0.62	0.647	0.543	0.453	0.588	0.517	0.429	0.39	0.327	0.571
LCLC-97TM1	0.645	0.847	1.04	0.289	0.0855	0.186	0.173	0.167	0.0653	0.237	0.267	0.189	0.215	0.206	0.205	0.191	0.195	0.212	0.168	0.223
NCI-H520	0.776	0.71	0.662	0.268	0.234	0.768	0.721	0.231	0.211	0.873	0.762	0.97		0.962	0.212	0.244		0.215	0.75	0.175
A-427	0.878	0.953	0.981	0.385	0.217	1.04	1.1	0.48	0.243	1.11	1.02	1.05		0.997	0.568	0.535		0.494	1.13	0.516
NCI-H460	1.37	1.03	1.1	0.237	0.107	0.0593	0.0626	0.0523	0.0519	0.46	0.325	0.475	0.329	0.351	0.0289	0.184		0.142	0.0626	0.192
NCI-H1395	0.754	0.871	0.385	0.386	0.421	0.986	0.725	0.432	0.377	0.945	0.915	1.24	0.962	0.957		0.713	0.641	0.654	1.04	0.653
